Test results from PMC8213057, “Targeting ALK2: An Open Science Approach to Developing Therapeutics for the Treatment of Diffuse Intrinsic Pontine Glioma” (Journal of Medicinal Chemistry, 2020).

Legend:
Aurora A = biological target: T1, Aurora A (Homo sapiens, UniProt O14965); test: biochemical; conditions: read-out: % enzyme activity, 1 μM; Run 1, Run 2
T1 sequence (O14965 1-403): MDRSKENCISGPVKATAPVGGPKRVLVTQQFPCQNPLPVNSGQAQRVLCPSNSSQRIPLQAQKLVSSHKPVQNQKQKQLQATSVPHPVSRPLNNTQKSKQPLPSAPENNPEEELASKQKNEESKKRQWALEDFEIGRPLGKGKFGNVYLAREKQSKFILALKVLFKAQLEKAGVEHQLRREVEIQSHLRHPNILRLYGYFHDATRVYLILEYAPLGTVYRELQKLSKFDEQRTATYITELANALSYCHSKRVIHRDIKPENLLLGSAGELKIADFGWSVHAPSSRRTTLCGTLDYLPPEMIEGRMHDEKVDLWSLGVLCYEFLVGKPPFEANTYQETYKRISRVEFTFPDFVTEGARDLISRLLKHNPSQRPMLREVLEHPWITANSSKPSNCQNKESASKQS

BRSK1 = biological target: T2, BRSK1 (Homo sapiens, UniProt Q8TDC3); conditions: 1 μM; Run 1, Run 2
T2 sequence (Q8TDC3 1-778): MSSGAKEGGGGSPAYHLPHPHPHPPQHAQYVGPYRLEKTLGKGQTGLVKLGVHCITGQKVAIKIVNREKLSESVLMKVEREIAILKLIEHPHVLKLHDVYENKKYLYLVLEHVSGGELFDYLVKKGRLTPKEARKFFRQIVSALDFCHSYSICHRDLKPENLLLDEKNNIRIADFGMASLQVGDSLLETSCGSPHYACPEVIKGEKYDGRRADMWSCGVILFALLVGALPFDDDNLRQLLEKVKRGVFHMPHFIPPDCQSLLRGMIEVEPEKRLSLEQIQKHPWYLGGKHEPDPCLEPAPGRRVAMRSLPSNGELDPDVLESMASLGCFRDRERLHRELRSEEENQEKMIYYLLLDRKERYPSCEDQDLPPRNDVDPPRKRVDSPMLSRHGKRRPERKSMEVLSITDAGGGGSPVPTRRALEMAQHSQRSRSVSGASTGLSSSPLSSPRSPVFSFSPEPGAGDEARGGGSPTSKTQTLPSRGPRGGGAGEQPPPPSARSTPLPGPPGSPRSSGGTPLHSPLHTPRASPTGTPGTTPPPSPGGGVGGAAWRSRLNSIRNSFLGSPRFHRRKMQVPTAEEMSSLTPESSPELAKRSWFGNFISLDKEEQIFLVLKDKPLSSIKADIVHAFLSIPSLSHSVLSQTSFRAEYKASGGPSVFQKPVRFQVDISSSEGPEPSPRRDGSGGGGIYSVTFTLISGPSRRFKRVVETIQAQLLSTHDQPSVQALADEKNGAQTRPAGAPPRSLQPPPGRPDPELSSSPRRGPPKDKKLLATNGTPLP

AXL = biological target: T3, AXL (Homo sapiens, UniProt P30530); conditions: 1 μM; Run 1, Run 2
T3 sequence (P30530 26-894): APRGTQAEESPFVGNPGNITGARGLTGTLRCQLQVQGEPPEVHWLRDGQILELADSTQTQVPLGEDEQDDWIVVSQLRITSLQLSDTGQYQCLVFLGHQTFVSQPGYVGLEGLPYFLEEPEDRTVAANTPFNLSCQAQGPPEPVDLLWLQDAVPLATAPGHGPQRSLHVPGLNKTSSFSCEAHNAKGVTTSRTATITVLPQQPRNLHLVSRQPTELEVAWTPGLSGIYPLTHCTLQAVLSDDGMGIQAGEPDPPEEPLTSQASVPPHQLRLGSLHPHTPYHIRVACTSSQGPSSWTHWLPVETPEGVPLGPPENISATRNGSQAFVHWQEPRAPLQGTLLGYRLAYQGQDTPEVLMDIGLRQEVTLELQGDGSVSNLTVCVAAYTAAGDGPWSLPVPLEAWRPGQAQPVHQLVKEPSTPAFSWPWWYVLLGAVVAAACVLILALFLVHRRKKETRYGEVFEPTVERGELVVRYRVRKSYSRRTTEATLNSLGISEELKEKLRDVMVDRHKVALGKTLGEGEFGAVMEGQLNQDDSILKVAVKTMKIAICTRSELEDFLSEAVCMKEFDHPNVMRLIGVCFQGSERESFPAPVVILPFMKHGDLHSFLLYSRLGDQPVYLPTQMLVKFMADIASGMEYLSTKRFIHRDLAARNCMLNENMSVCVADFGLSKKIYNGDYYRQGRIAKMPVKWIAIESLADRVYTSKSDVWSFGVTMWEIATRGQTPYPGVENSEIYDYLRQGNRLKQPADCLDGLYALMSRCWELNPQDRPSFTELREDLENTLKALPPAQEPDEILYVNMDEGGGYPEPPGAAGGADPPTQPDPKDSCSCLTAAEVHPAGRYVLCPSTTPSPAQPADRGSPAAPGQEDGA

SLK/STK2 = SLK/STK2 (Homo sapiens, UniProt Q9H2G2); conditions: 1 μM; Run 1, Run 2
Chain of SLK/STK2 (Q9H2G2 whole entry): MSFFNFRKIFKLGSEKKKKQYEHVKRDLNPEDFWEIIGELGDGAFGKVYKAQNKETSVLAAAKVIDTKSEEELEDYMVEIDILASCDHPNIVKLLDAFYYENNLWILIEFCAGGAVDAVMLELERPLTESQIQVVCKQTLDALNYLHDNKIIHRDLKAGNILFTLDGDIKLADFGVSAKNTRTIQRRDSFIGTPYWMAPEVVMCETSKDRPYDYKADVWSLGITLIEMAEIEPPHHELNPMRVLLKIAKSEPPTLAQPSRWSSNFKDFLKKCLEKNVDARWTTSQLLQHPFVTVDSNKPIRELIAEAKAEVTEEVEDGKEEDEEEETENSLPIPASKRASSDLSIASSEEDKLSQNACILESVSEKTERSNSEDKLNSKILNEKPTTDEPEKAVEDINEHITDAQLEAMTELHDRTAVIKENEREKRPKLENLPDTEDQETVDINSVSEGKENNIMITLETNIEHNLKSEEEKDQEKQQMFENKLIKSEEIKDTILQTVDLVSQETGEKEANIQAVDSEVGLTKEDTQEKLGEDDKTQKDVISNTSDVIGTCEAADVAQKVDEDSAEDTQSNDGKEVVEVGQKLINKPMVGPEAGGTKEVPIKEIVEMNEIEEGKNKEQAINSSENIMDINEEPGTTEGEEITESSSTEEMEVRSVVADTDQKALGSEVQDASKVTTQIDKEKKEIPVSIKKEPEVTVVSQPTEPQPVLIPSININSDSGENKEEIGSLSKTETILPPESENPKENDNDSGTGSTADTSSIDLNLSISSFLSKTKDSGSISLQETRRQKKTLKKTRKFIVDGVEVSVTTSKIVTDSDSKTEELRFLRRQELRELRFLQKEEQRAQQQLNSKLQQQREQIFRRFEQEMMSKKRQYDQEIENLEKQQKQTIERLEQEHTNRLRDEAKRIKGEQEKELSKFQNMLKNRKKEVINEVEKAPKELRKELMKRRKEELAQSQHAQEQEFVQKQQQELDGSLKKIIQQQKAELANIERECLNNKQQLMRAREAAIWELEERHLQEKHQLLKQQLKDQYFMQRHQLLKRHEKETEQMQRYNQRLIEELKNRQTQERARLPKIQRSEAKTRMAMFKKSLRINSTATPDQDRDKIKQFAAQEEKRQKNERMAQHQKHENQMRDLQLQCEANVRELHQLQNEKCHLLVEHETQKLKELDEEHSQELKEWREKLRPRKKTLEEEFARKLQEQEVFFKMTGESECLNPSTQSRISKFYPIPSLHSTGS

DAPK2 = DAPK2 (Homo sapiens, UniProt Q9UIK4); conditions: 1 μM; Run 1, Run 2
Chain of DAPK2 (Q9UIK4 whole entry): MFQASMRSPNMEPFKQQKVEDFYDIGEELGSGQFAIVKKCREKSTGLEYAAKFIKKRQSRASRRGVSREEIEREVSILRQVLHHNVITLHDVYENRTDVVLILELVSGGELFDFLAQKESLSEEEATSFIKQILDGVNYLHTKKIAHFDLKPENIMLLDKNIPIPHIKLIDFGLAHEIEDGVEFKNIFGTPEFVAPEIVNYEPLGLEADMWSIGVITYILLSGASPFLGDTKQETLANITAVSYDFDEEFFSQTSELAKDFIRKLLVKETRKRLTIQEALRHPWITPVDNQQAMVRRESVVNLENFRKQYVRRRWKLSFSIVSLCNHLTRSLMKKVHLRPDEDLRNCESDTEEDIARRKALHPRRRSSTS

ULK3 = biological target: T4, ULK3 (Homo sapiens, UniProt Q6PHR2); test: biochemical; conditions: read-out: % enzyme activity, 1 μM; Run 1, Run 2
T4 sequence (Q6PHR2 1-472): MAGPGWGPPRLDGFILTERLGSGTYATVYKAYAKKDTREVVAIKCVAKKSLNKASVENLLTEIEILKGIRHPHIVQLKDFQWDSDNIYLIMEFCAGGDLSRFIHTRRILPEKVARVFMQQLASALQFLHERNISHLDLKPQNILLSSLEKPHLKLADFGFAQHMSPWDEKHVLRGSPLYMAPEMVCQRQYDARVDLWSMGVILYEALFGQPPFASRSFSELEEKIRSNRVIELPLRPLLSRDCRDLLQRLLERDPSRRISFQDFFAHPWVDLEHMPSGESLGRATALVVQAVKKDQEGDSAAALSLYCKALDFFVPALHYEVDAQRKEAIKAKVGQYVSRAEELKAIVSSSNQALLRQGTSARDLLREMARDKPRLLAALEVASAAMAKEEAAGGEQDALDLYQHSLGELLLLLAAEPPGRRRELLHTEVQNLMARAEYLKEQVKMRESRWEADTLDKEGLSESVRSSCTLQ

| Structure (SMILES) | remaining activity at 1 µM (Aurora A) [%] | % enzyme activity (BRSK1) [%] | % enzyme activity (AXL) [%] | % enzyme activity (SLK/STK2) [%] | % enzyme activity (DAPK2) [%] | remaining activity at 1 µM (ULK3) [%] |
| --- | --- | --- | --- | --- | --- | --- |
| COc1cc(-c2cncc(-c3ccc(N4C[C@@H](C)N(C)[C@@H](C)C4)cc3)c2C)cc(F)c1C(N)=O [Compound 26c, 2-Fluoro-6-methoxy-4-(4-methyl-5-(4-((3R,5S)-3,4,5-trimethylpiperazin-1-yl)phenyl)pyridin-3-yl)benzamide] | 102 | 78.18 | 86.95 | 100.64 | 95.98 | 98.8 |
| COc1cc(-c2cncc(-c3ccc(N4CCN(C)CC4)cc3)c2C)cc(F)c1C(N)=O [Compound 26a, 2-Fluoro-6-methoxy-4-(4-methyl-5-(4-(4-methylpiperazin-1-yl)phenyl)pyridin-3-yl)benzamide] | 101 | 83.89 | 81.59 | 96.16 | 101.48 | 91.5 |
